Source: EP1203770A1 (priority 1992, dated 1994)
Values joined by “and” are separate entries in the source; they are usually repeats but may differ in a detail not shown here. Equal entries are not always repeated.

Biological target: T1, HIV-1 protease (Human immunodeficiency virus type 1 group M subtype B, UniProt P04585)
T1 construct: The protease (or proteinase), consisting of only 99 amino acids, is among the smallest enzymes known
Test: In vitro HIV protease inhibitory assay (HIV Protease FITC Assay)
Type: biochemical
Conditions: for inhibition at 0.123 µM / inhibition at 0.37 µM / inhibition at 1.1 µM / inhibition at 3.3 µM / inhibition at 10 µM / inhibition at 30 µM / inhibition at 0.41 µM / inhibition at 1.23 µM / inhibition at 3.7 µM / inhibition at 11 µM / inhibition at 33 µM / inhibition at 100 µM / inhibition at 1 µM: read-out: HIV-1 Protease % Inhib; for Ki: read-out: HIV-1 FITC Ki; for inhibition at 0.41 µM: HIV-1 Dose 0.410 uM; for inhibition at 1.23 µM: HIV-1 Dose 1.230 uM; for inhibition at 3.7 µM: HIV-1 Dose 3.700 uM; for inhibition at 11 µM: HIV-1 Dose 11.000 uM; for inhibition at 33 µM: HIV-1 Dose 33.000 uM
Method in brief: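 Biotin/FITC-labelled peptide substrate cleaved by HIV-1 protease for 1 h at room temperature in the dark, in 0.1 M sodium acetate pH 5.5, 1.0 M NaCl, 0.05% NP-40. Uncleaved substrate captured on avidin beads and separated by filtration; fluorescence gave % inhibition.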

Row | Compound | inhibition at 0.123 µM (HIV-1 Dose 0.123 uM) | inhibition at 0.37 µM (HIV-1 Dose 0.370 uM) | inhibition at 1.1 µM (HIV-1 Dose 1.100 uM) | inhibition at 3.3 µM (HIV-1 Dose 3.300 uM) | inhibition at 10 µM (HIV-1 Dose 10.000 uM) | inhibition at 30 µM (HIV-1 Dose 30.000 uM) | Ki | inhibition at 100 µM (HIV-1 Dose 100.000 uM) | other results
1 | CCC(CCCl)c1cc(O)c(C(c2ccccc2)C2CC2)c(=O)o1 (stereo not shown) [Example 66, 6-(3-Chloro-1-ethyl-propyl)-3-(cyclopropyl-phenyl-methyl)-4-hydroxy-pyran-2-one] | < 10% | 36% | 75.3% | 99.4% | 102% | 108% | 53 nM |  | 
2 | CCC(CCOC1CCCCO1)c1cc(O)c(C(c2ccccc2)C2CC2)c(=O)o1 (stereo not shown) [Example 67] |  |  |  |  |  |  | 84 nM |  | HIV-1 Protease % Inhib (HIV-1 Dose 0.123 uM): <10%; HIV-1 Protease % Inhib (HIV-1 Dose 0.370 uM): 32.64%; HIV-1 Protease % Inhib (HIV-1 Dose 1.100 uM): 72.63%; HIV-1 Protease % Inhib (HIV-1 Dose 3.300 uM): 92.3%; HIV-1 Protease % Inhib (HIV-1 Dose 10.000 uM): 106.66%; HIV-1 Protease % Inhib (HIV-1 Dose 30.000 uM): 118.42%
3 | CCC(Cc1ccncc1)c1cc(O)c(C(c2ccccc2)C2CC2)c(=O)o1 (stereo not shown) [Example 68, 3-(Cyclopropyl-phenyl-methyl)-4-hydroxy-6-(1-pyridin-4-ylmethyl-propyl)-pyran-2-one] | < 10% | 15.1% | 47.7% | 80.3% | 98.7% | 112% | 132 nM |  | 
4 | CCC(CC(=O)N1CCOCC1)c1cc(O)c(C(c2ccccc2)C2CC2)c(=O)o1 (stereo not shown) [Example 69, 3-(Cyclopropyl-phenyl-methyl)-6-(1-ethyl-3-morpholin-4-yl-3-oxo-propyl)-4-hydroxy-pyran-2-one] | < 10% | < 10% | 13.9% | 42.1% | 75.2% | 98.5% |  |  | 
5 | CCC(Cc1cccnc1)c1cc(O)c(C(c2ccccc2)C2CC2)c(=O)o1 (stereo not shown) [Example 70, 3-(Cyclopropyl-phenyl-methyl)-4-hydroxy-6-(1-pyridin-3-ylmethyl-propyl)-pyran-2-one] | < 10% | 38.3% | 67.3% | 88.9% | 92.8% | 98.6% | 64 nM |  | 
6 | CCC(CCc1ccsc1)c1cc(O)c(C(c2ccccc2)C2CC2)c(=O)o1 (stereo not shown) [Example 71, 3-(Cyclopropyl-phenyl-methyl)-6-(1-ethyl-3-thiophen-3-yl-propyl)-4-hydroxy-pyran-2-one] | 11.6% | 46.3% | 75% | 84% | 95.3% | 96.4% | 54 nM |  | 
7 | CCCC(CC1CCCOC1)c1cc(O)c(C(c2ccccc2)C2CC2)c(=O)o1 (stereo not shown) [Example 72, 3-(Cyclopropyl-phenyl-methyl)-4-hydroxy-6-[1-(tetrahydro-pyran-3-ylmethyl)-butyl]-pyran-2-one] | 35% | 68.4% | 90.7% | 98.7% | 93.9% | 97.7% | 31 nM |  | 
8 | CCC(CCCN1CCOCC1)c1cc(O)c(C(c2ccccc2)C2CC2)c(=O)o1 (stereo not shown) [Example 73, 3-(Cyclopropyl-phenyl-methyl)-6-(1-ethyl-4-morpholin-4-yl-butyl)-4-hydroxy-pyran-2-one] | < 10% | < 10% | < 10% | < 10% | 28.9% | 61.4% |  |  | 
9 | CCC(CC1COc2ccccc2O1)c1cc(O)c(C(c2ccccc2)C2CC2)c(=O)o1 (stereo not shown) [Example 74, 3-(Cyclopropyl-phenyl-methyl)-6-[1-(2,3-dihydro-benzo[1,4]dioxin-2-ylmethyl)-propyl]-4-hydroxy-pyran-2-one] | < 10% | 17.5% | 53.4% | 81.4% | 96.7% | 106% | 186 nM |  | 
10 | CC(C)Cc1cc(O)c(C(c2ccccc2)C2CC2)c(=O)o1 (stereo not shown) [Example 75, 3-(Cyclopropyl-phenyl-methyl)-4-hydroxy-6-isobutyl-pyran-2-one] | 11.5% | 33.8% | 66% | 86.6% | 98.5% | 104% | 127 nM |  | 
11 | CCC(CC1=CCCOC1)c1cc(O)c(C(c2ccccc2)C2CC2)c(=O)o1 (stereo not shown) [Example 76, 3-(Cyclopropyl-phenyl-methyl)-6-[1-(5,6-dihydro-2H-pyran-3-ylmethyl)-propyl]-4-hydroxy-pyran-2-one] | 25% | 54% | 82.4% | 98.9% | 102% | 105% |  |  | 
12 | CCC(c1ccccc1)c1c(O)c(Br)c(C(CC2CC2)CC2CC2)oc1=O (stereo not shown) [Example 77] |  |  |  |  |  |  | 75 nM | 110% | inhibition at 0.41 µM: 69.4%; inhibition at 1.23 µM: 86.9%; inhibition at 3.7 µM: 101%; inhibition at 11 µM: 109%; inhibition at 33 µM: 108%
13 | CCCc1oc(=O)c(C(c2ccccc2)C2CC2)c(O)c1CCOCCOC (stereo not shown) [Example 78, 3-(Cyclopropyl-phenyl-methyl)-4-hydroxy-5-[2-(2-methoxy-ethoxy)-ethyl]-6-propyl-pyran-2-one] |  |  |  |  |  |  | 196 nM | 106% | inhibition at 0.41 µM: 50.5%; inhibition at 1.23 µM: 68.9%; inhibition at 3.7 µM: 93.2%; inhibition at 11 µM: 101%; inhibition at 33 µM: 107%
14 | O=c1oc(C(CC2CC2)CC2CC2)cc(O)c1C(Cc1ccccc1)Cc1ccccc1 [Example 79, 3-(1-Benzyl-2-phenyl-ethyl)-6-(2-cyclopropyl-1-cyclopropylmethyl-ethyl)-4-hydroxy-pyran-2-one] | 39.9% | 76.7% | 106% | 111% | 122% | 117% | 33 nM |  | 
15 | CC(C)CC(CC(C)C)c1cc(O)c(C(c2ccccc2)C2CC2)c(=O)o1 (stereo not shown) [Example 80, 3-(Cyclopropyl-phenyl-methyl)-4-hydroxy-6-(1-isobutyl-3-methyl-butyl)-pyran-2-one] |  |  |  |  | 78.9% |  |  | 102% | inhibition at 1 µM (HIV-1 Dose 1.000 uM): 50.5%
16 | O=c1oc(C(CC2CC2)CC2CC2)cc(O)c1C(c1ccccc1)C1CC1 (stereo not shown) [Example 81] |  |  |  |  |  |  | 31 nM |  | HIV-1 Protease % Inhib (HIV-1 Dose 1.000 uM): 41.76%; HIV-1 Protease % Inhib (HIV-1 Dose 10.000 uM): 76.98%; HIV-1 Protease % Inhib (HIV-1 Dose 100.000 uM): 83.48% and 83.5%; HIV-1 Protease % Inhib (dose not given): <10%
17 | O=c1oc(CCc2ccccc2)cc(O)c1C(C1CC1)C1CC1 [Example 82, 3-Dicyclopropylmethyl-4-hydroxy-6-phenethyl-pyran-2-one] |  |  |  |  | 90.9% |  |  | 106% | inhibition at 1 µM (HIV-1 Dose 1.000 uM): 19.8%
18 | CC(c1cc(O)c(C(C2CC2)C2CC2)c(=O)o1)C1CC1 (stereo not shown) [Example 83, 6-(1-Cyclopropyl-ethyl)-3-dicyclopropylmethyl-4-hydroxy-pyran-2-one] |  |  |  |  | 72% |  |  | 93.5% | inhibition at 1 µM (HIV-1 Dose 1.000 uM): 10.5%
19 | CC(CC1CC1)(c1cc(O)c(C(C2CC2)C2CC2)c(=O)o1)C1CC1 (stereo not shown) [Example 84, 6-(1-Cyclopropyl-1-cyclopropylmethyl-ethyl)-3-dicyclopropylmethyl-4-hydroxy-pyran-2-one] |  |  |  |  | 91% |  |  |  | inhibition at 1 µM (HIV-1 Dose 1.000 uM): 54.8%; HIV-1 Protease % Inhib (HIV-1 Dose 100.000 uM): 120.09% and 100%
20 | CCC(CC1CCCCC1)c1cc(O)c(C(c2ccccc2)C2CC2)c(=O)o1 (stereo not shown) [Example 85, 6-(1-Cyclohexylmethyl-propyl)-3-(cyclopropyl-phenyl-methyl)-4-hydroxy-pyran-2-one] |  |  |  |  | 77% |  |  | 92.1% | inhibition at 1 µM (HIV-1 Dose 1.000 uM): 11.6%
